# Reference: PubChem BioAssay (NCI)
#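 Assay format: 96-well plates, 48-hour exposure. The concentration for 50% growth inhibition is given as GI50. TGI: total growth inhibition.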
# How the values were obtained:
# Experiment in all cases: NCI anticancer screen, dose series, 48 h
# [1] = test system: 786-0 renal
# [2] = test system: A498 renal
# [3] = test system: A549 NSCLC
# [4] = test system: ACHN renal
# [5] = test system: CAKI-1 renal
# [6] = test system: COLO 205 colon
# [7] = test system: DU-145 prostate
# [8] = test system: HCC-2998 colon
# [9] = test system: HCT-116 colon
# [10] = test system: HCT-15 colon
# [11] = test system: HOP-62 NSCLC
# [12] = test system: HOP-92 NSCLC
# [13] = test system: HT29 colon
# [14] = test system: K-562 leukemia
# [15] = test system: KM12 colon
# [16] = test system: LOX IMVI melanoma
# [17] = test system: M14 melanoma
# [18] = test system: MALME-3M melanoma
# [19] = test system: MCF7 breast
# [20] = test system: MDA-MB-231 breast
# [21] = test system: MDA-MB-435
# [22] = test system: NCI-H226 lung
# [23] = test system: NCI-H23 lung
# [24] = test system: NCI-H460 lung
# [25] = test system: NCI-H522 lung
# [26] = test system: OVCAR-3 ovarian
# [27] = test system: OVCAR-4 ovarian
# [28] = test system: OVCAR-5 ovarian
# [29] = test system: OVCAR-8 ovarian
# [30] = test system: PC-3 prostate
# [31] = test system: RPMI-8226 leukemia
# [32] = test system: SF-268 CNS
# [33] = test system: SF-539 CNS
# [34] = test system: SK-MEL-2 melanoma
# [35] = test system: SK-MEL-28 melanoma
# [36] = test system: SK-MEL-5 melanoma
# [37] = test system: SK-OV-3 ovarian
# [38] = test system: SN12C renal
# [39] = test system: SNB-19 CNS
# [40] = test system: SNB-75 CNS
# [41] = test system: SW-620 colon
# [42] = test system: TK-10 renal
# [43] = test system: U251 CNS
# [44] = test system: UACC-257 melanoma
# [45] = test system: BT-549 breast
# [46] = test system: CCRF-CEM leukemia
# [47] = test system: EKVX NSCLC
# [48] = test system: HL-60(TB) leukemia
# [49] = test system: HS 578T breast
# [50] = test system: IGROV1 ovarian
# [51] = test system: MOLT-4 leukemia
# [52] = test system: NCI/ADR-RES ovarian
# [53] = test system: SF-295 CNS
# [54] = test system: SR leukemia
# [55] = test system: UACC-62 melanoma
# [56] = test system: UO-31 renal
# [57] = test system: RXF 393 renal
# [58] = test system: T-47D breast
compound,measurement,setting,value
COc1ccc(CC2NC(=O)/C=C/CC(C(C)C3OC3c3ccccc3)OC(=O)C(CC(C)C)OC(=O)C(C)CNC2=O)cc1Cl (stereo unspecified),TGI,[1],> 0.1 µM
same,TGI,[2],0.0366 nM
same,TGI,[3],> 0.1 µM
same,TGI,[4],> 0.1 µM
same,TGI,[5],> 0.1 µM
same,TGI,[6],0.0212 nM
same,TGI,[7],> 0.1 µM
same,TGI,[8],0.00259 µM
same,TGI,[9],> 0.1 µM
same,TGI,[10],> 0.1 µM
same,TGI,[11],> 0.1 µM
same,TGI,[12],> 0.1 µM
same,TGI,[13],0.000108 µM
same,TGI,[14],> 0.0416 µM
same,TGI,[15],> 0.1 µM
same,TGI,[16],> 0.1 µM
same,TGI,[17],0.00141 µM
same,TGI,[18],> 0.1 µM
same,TGI,[19],> 0.1 µM
same,TGI,[20],3.5e-05 µM
same,TGI,[21],1.58e-05 µM
same,TGI,[22],0.000127 µM
same,TGI,[23],> 0.1 µM
same,TGI,[24],0.00696 µM
same,TGI,[25],> 0.1 µM
same,TGI,[26],0.000584 µM
same,TGI,[27],> 0.1 µM
same,TGI,[28],> 0.1 µM
same,TGI,[29],> 0.1 µM
same,TGI,[30],> 0.1 µM
same,TGI,[31],> 0.1 µM
same,TGI,[32],> 0.1 µM
same,TGI,[33],4.43e-05 µM
same,TGI,[34],> 0.1 µM
same,TGI,[35],> 0.1 µM
same,TGI,[36],0.000657 µM
same,TGI,[37],> 0.1 µM
same,TGI,[38],> 0.1 µM
same,TGI,[39],> 0.1 µM
same,TGI,[40],> 0.1 µM
same,TGI,[41],> 0.1 µM
same,TGI,[42],> 0.1 µM
same,TGI,[43],> 0.1 µM
same,TGI,[44],> 0.1 µM
CCOP(=O)(OCC)C(NC(c1ccccc1)c1ccccc1)c1cccc2ccccc12 (stereo unspecified),GI50,[1],2.9 µM
same,TGI,[1],9.64 µM
same,GI50,[3],4.28 µM
same,TGI,[3],> 100 µM
same,GI50,[4],4.1 µM
same,TGI,[4],12.3 µM
same,GI50,[45],23.8 µM
same,TGI,[45],53.5 µM
same,GI50,[5],4.09 µM
same,TGI,[5],14.5 µM
same,GI50,[46],5.86 µM
same,TGI,[46],> 100 µM
same,GI50,[7],20.4 µM
same,TGI,[7],39 µM
same,GI50,[47],16.2 µM
same,TGI,[47],35.5 µM
same,GI50,[8],4.55 µM
same,TGI,[8],17.2 µM
same,GI50,[10],1.51 µM
same,TGI,[10],8.78 µM
same,GI50,[48],14.1 µM
same,TGI,[48],> 100 µM
same,GI50,[12],11.7 µM
same,TGI,[12],28.4 µM
same,GI50,[49],29.9 µM
same,TGI,[49],67.3 µM
same,GI50,[50],23.6 µM
same,TGI,[50],> 100 µM
same,GI50,[14],3.99 µM
same,TGI,[14],21 µM
same,GI50,[15],5.32 µM
same,TGI,[15],23 µM
same,GI50,[17],3.03 µM
same,TGI,[17],7.71 µM
same,GI50,[19],4.04 µM
same,TGI,[19],24.3 µM
same,GI50,[20],1.56 µM
same,TGI,[20],9.63 µM
same,GI50,[21],9.18 µM
same,TGI,[21],28.3 µM
same,GI50,[51],4.17 µM
same,TGI,[51],> 100 µM
same,GI50,[22],4.63 µM
same,TGI,[22],19 µM
same,GI50,[23],13.3 µM
same,TGI,[23],29.5 µM
same,GI50,[24],5.05 µM
same,TGI,[24],25.8 µM
same,GI50,[25],7.96 µM
same,TGI,[25],> 100 µM
same,GI50,[52],9.79 µM
same,TGI,[52],22.6 µM
same,GI50,[26],4.22 µM
same,TGI,[26],12.5 µM
same,GI50,[28],14.3 µM
same,TGI,[28],34.4 µM
same,GI50,[29],6.14 µM
same,TGI,[29],> 100 µM
same,GI50,[30],3.37 µM
same,TGI,[30],13.9 µM
same,GI50,[31],2.38 µM
same,TGI,[31],5.57 µM
same,GI50,[32],5.75 µM
same,TGI,[32],21.2 µM
same,GI50,[53],6.76 µM
same,TGI,[53],65.7 µM
same,GI50,[33],23 µM
same,TGI,[33],41.4 µM
same,GI50,[34],27.7 µM
same,TGI,[34],> 100 µM
same,GI50,[36],14.9 µM
same,TGI,[36],32.2 µM
same,GI50,[38],2.68 µM
same,TGI,[38],8.65 µM
same,GI50,[54],4.91 µM
same,TGI,[54],> 100 µM
same,GI50,[41],22.2 µM
same,TGI,[41],57.6 µM
same,GI50,[42],10.3 µM
same,TGI,[42],29.4 µM
same,GI50,[44],3.22 µM
same,TGI,[44],13.9 µM
same,GI50,[55],2.58 µM
same,TGI,[55],9.1 µM
same,GI50,[56],12.3 µM
same,TGI,[56],> 100 µM
Cc1cccc(C(O)c2ccncc2)c1O (stereo unspecified),TGI,[3],> 100 µM
same,TGI,[4],> 100 µM
same,TGI,[46],> 100 µM
same,TGI,[7],> 100 µM
same,TGI,[47],> 100 µM
same,TGI,[8],> 100 µM
same,TGI,[9],> 100 µM
same,TGI,[10],> 100 µM
same,TGI,[48],> 100 µM
same,TGI,[11],> 100 µM
same,TGI,[49],> 100 µM
same,TGI,[14],> 100 µM
same,TGI,[15],> 100 µM
same,TGI,[16],> 100 µM
same,TGI,[17],> 100 µM
same,TGI,[51],> 100 µM
same,TGI,[22],> 100 µM
same,TGI,[23],> 100 µM
same,TGI,[25],> 100 µM
same,TGI,[52],> 100 µM
same,TGI,[26],> 100 µM
same,TGI,[29],> 100 µM
same,TGI,[30],> 100 µM
same,TGI,[57],> 100 µM
same,TGI,[32],> 100 µM
same,TGI,[53],> 100 µM
same,TGI,[33],> 100 µM
same,TGI,[36],> 100 µM
same,TGI,[38],> 100 µM
same,TGI,[39],> 100 µM
same,TGI,[40],> 100 µM
same,TGI,[58],> 100 µM
same,TGI,[43],> 100 µM
same,TGI,[44],> 100 µM
same,TGI,[55],> 100 µM
same,TGI,[56],> 100 µM
